Experimental data: paper PMC4398506, “Remodeling of host phosphatidylcholine by Chlamydia acyltransferase is regulated by acyl-CoA binding protein ACBD6 associated with lipid droplets” (MicrobiologyOpen, 2015)

Molecular target: T1, CT775 (Chlamydia LPCAT) (Chlamydia trachomatis, UniProt O84780)
T1 construct: gene CT_775; full-length gene (253 residues predicted) in pET28a, His-tagged, expressed in E. coli BL21DE3; cleared lysate or membrane fraction, not purified
Assay: radiometric TLC assay of […]PC formation from lysoPC
Format: biochemical
Details: labelled compound; acyl donor with 20 umol/L egg lysoPC; pH 7.0, 37 C, Tween-20

T1 sequence (O84780 entry or part of it): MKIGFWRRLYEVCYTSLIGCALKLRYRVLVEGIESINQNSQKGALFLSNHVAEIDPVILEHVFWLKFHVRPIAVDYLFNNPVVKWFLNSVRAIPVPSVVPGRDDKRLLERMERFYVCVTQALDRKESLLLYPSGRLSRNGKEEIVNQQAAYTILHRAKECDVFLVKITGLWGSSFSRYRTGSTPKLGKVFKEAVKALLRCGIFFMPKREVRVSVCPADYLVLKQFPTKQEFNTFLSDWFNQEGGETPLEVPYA

Q: Which “radiometric TLC assay of [14C]PC formation from lysoPC” value does the source give for `CCCCCCCC/C=C\CCCCCCCC(=O)SCCNC(=O)CCNC(=O)[C@H](O)C(C)(C)COP(=O)(O)OP(=O)(O)OC[C@H]1O[C@@H](n2cnc3c(N)ncnc32)[C@H](O)[C@@H]1OP(=O)(O)O` [C18:1-CoA] here?
A: The rate of PC formation by CT775 was dependent on the concentration of oleoyl-CoA
